Measured values: patent publication US4477443A, “Tylosin derivatives, their preparation and pharmaceutical compositions containing them” (Zaidan Hojin Biselbutsu Kagaku Kenkyu Kai (Microbial …, priority 1981, dated 1984)
Converted amounts (≈) assume the structure as drawn. Where two headings read alike, the source gives them in different places.

Experiments:
Test in all cases: antimicrobial activity (MIC), Table I
Format in all cases: cell-based
Staph. aureus 193 = conditions: Staphylococcus aureus
Staph. aureus 209 P = conditions: Staphylococcus aureus
Staph. aureus MS 9861 = conditions: Staphylococcus aureus, MS9861
Sarcina lutea PCI 1001 = conditions: Micrococcus luteus, PCI1001
B. subtilis NRRL B-558 = conditions: Bacillus subtilis, NRRLB558
Coryn. bovis 1810 = conditions: Corynebacterium bovis
E. coli NIHJ = conditions: Escherichia coli
E. coli K-12 = conditions: Escherichia coli, K12
E. coli K-12 R-5 = conditions: Escherichia coli, K12R5
Kleb. pneumoniae PCI 602 = conditions: Klebsiella pneumoniae, PCI602
[1] = system: Shigella dysenteriae JS 11910; conditions: JS11910
Sal. enteritidis 1891 = conditions: Salmonella enterica
E. coli K-12 ML 1410 = conditions: Escherichia coli, K12ML1410; E. coli K-12 ML 1410; read-out: MIC
Pro. vulgaris OX-19 = conditions: Proteus vulgaris, OX19; Pro. vulgaris OX-19; read-out: MIC
[2] = Staph. aureus 193, read-out: MIC
[3] = Staph. aureus 209 P, read-out: MIC
[4] = Staph. aureus MS 9861, read-out: MIC
[5] = Sarcina lutea PCI 1001, read-out: MIC
[6] = B. subtilis NRRL B-558, read-out: MIC
[7] = Coryn. bovis 1810, read-out: MIC
[8] = E. coli K-12 R-5, read-out: MIC
[9] = Kleb. pneumoniae PCI 602, read-out: MIC
[10] = Sal. enteritidis 1891, read-out: MIC

SMILES | MIC (Staph. aureus 193; [2]) | MIC (Staph. aureus 209 P; [3]) | MIC (Staph. aureus MS 9861; [4]) | MIC (Sarcina lutea PCI 1001; [5]) | MIC (B. subtilis NRRL B-558; [6]) | MIC (Coryn. bovis 1810; [7]) | MIC (E. coli NIHJ; E. coli NIHJ, read-out: MIC) | MIC (E. coli K-12; E. coli K-12, read-out: MIC) | MIC (E. coli K-12 R-5; [8]) | MIC (Kleb. pneumoniae PCI 602; [9]) | MIC [1] | MIC (Sal. enteritidis 1891; [10]) | further results
CCC1OC(=O)CC(O)C(C)C(OC2OC(C)CC(N(C)C)C2O)C(CC=O)CC(C)C(=O)C=CC(C)=CC1CN1CCN(C)CC1 (centres unmarked) [Example 32, 23,4'-dideoxy-23-(4-methylpiperazin-1-yl)mycaminosyl tylonolide] | 1.56 µg/mL (≈ 2.35 µM) | 0.78 µg/mL (≈ 1.17 µM) | 6.25 µg/mL (≈ 9.41 µM) | < 0.2 µg/mL | 1.56 µg/mL (≈ 2.35 µM) | 6.25 µg/mL (≈ 9.41 µM) | 3.12 µg/mL (≈ 4.7 µM) | 25 µg/mL (≈ 37.7 µM) | 6.25 µg/mL (≈ 9.41 µM) | 25 µg/mL (≈ 37.7 µM) | 0.2 µg/mL (≈ 0.301 µM) | 6.25 µg/mL (≈ 9.41 µM) | 
CCC1OC(=O)CC(O)C(C)C(OC2OC(C)CC(N(C)C)C2O)C(CC=O)CC(C)C(=O)C=CC(C)=CC1CN(CC)C(=O)Oc1ccccc1 (centres unmarked) [Example 85, 23,4'-Dideoxy-23-N-ethylphenoxycarbonylaminomycaminosyl tylonolide] |  |  |  |  |  |  |  |  |  |  | 0.78 µg/mL (≈ 1.07 µM) |  | MIC (Staph. aureus 193; 193): 0.39 µg/mL (≈ 0.535 µM); MIC (Staph. aureus 209 P; 209P): < 0.2 µg/mL; MIC (Staph. aureus MS 9861): 0.39 µg/mL (≈ 0.535 µM); MIC (Sarcina lutea PCI 1001): < 0.2 µg/mL; MIC (B. subtilis NRRL B-558): < 0.2 µg/mL; MIC (Coryn. bovis 1810; 1810): < 0.2 µg/mL; MIC (E. coli NIHJ): 12.5 µg/mL (≈ 17.1 µM); MIC (E. coli K-12): 12.5 µg/mL (≈ 17.1 µM); MIC (E. coli K-12 R-5): 12.5 µg/mL (≈ 17.1 µM); MIC (Kleb. pneumoniae PCI 602): 3.12 µg/mL (≈ 4.28 µM); MIC (Sal. enteritidis 1891; ENTERITIDIS): 12.5 µg/mL (≈ 17.1 µM)
CCC1OC(=O)CC(O)C(C)C(OC2OC(C)CC(N(C)C)C2O)C(CC=O)CC(C)C(=O)C=CC(C)=CC1CN(CC)C(=O)OC (centres unmarked) [Example 83, 23,4'-Dideoxy-23-N-ethylmethoxycarbonylaminomycaminosyl tylonolide] | < 0.2 µg/mL | < 0.2 µg/mL | 0.39 µg/mL (≈ 0.585 µM) | < 0.2 µg/mL | < 0.2 µg/mL | < 0.2 µg/mL | 6.25 µg/mL (≈ 9.37 µM) | 12.5 µg/mL (≈ 18.7 µM) | 12.5 µg/mL (≈ 18.7 µM) | 12.5 µg/mL (≈ 18.7 µM) | 1.56 µg/mL (≈ 2.34 µM) | 6.25 µg/mL (≈ 9.37 µM) | 
CCC1OC(=O)CC(O)C(C)C(OC2OC(C)C(O)C(N(C)C)C2O)C(CC=O)CC(C)C(=O)C=CC(C)=CC1CN(C)C (centres unmarked) [Example 4, 23-deoxy-23-dimethylaminomycaminosyl tylonolide] | 0.39 µg/mL (≈ 0.624 µM) | 0.2 µg/mL (≈ 0.32 µM) | 1.56 µg/mL (≈ 2.5 µM) | < 0.2 µg/mL | 0.78 µg/mL (≈ 1.25 µM) | 0.78 µg/mL (≈ 1.25 µM) | 0.78 µg/mL (≈ 1.25 µM) | 1.56 µg/mL (≈ 2.5 µM) | 1.56 µg/mL (≈ 2.5 µM) | 0.78 µg/mL (≈ 1.25 µM) | 0.39 µg/mL (≈ 0.624 µM) | 1.56 µg/mL (≈ 2.5 µM) | MIC (E. coli K-12 ML 1410): 1.56 µg/mL (≈ 2.5 µM); MIC (Pro. vulgaris OX-19): 1.56 µg/mL (≈ 2.5 µM)
CCC1OC(=O)CC(O)C(C)C(OC2OC(C)CC(N(C)C)C2O)C(CC=O)CC(C)C(=O)C=CC(C)=CC1CN1CCOCC1 (centres unmarked) [Example 29, 23,4'-dideoxy-23-morpholinomycaminosyl tylonolide] | 0.39 µg/mL (≈ 0.599 µM) | 0.39 µg/mL (≈ 0.599 µM) | 0.78 µg/mL (≈ 1.2 µM) | < 0.2 µg/mL | 0.39 µg/mL (≈ 0.599 µM) | < 0.2 µg/mL | 3.12 µg/mL (≈ 4.79 µM) | 25 µg/mL (≈ 38.4 µM) | 12.5 µg/mL (≈ 19.2 µM) | 3.12 µg/mL (≈ 4.79 µM) | 0.39 µg/mL (≈ 0.599 µM) | 12.5 µg/mL (≈ 19.2 µM) | 
CCC1OC(=O)CC(O)C(C)C(OC2OC(C)C(O)C(N(C)C)C2O)C(CC=O)CC(C)C(=O)C=CC(C)=CC1CN(C)Cc1ccccc1 (centres unmarked) [Example 25, 23-deoxy-23-(N-methylbenzylamino)mycaminosyl tylonolide] | 0.2 µg/mL (≈ 0.285 µM) | < 0.2 µg/mL | 0.2 µg/mL (≈ 0.285 µM) | 0.39 µg/mL (≈ 0.556 µM) | 3.12 µg/mL (≈ 4.45 µM) | < 0.2 µg/mL | 1.56 µg/mL (≈ 2.23 µM) | 3.12 µg/mL (≈ 4.45 µM) | 6.25 µg/mL (≈ 8.92 µM) | 0.39 µg/mL (≈ 0.556 µM) | 3.12 µg/mL (≈ 4.45 µM) | 1.56 µg/mL (≈ 2.23 µM) | 
CCC1OC(=O)CC(O)C(C)C(OC2OC(C)CC(N(C)C)C2O)C(CC=O)CC(C)C(=O)C=CC(C)=CC1CNC(=O)Oc1ccccc1 (centres unmarked) [Example 80, 23,4'-Dideoxy-23-phenoxycarbonylaminomycaminosyl tylonolide] |  |  |  |  |  |  |  |  |  |  | 0.78 µg/mL (≈ 1.11 µM) |  | MIC (Staph. aureus 193; 193): < 0.2 µg/mL; MIC (Staph. aureus 209 P; 209P): < 0.2 µg/mL; MIC (Staph. aureus MS 9861): < 0.2 µg/mL; MIC (Sarcina lutea PCI 1001): < 0.2 µg/mL; MIC (B. subtilis NRRL B-558): 0.39 µg/mL (≈ 0.556 µM); MIC (Coryn. bovis 1810; 1810): < 0.2 µg/mL; MIC (E. coli NIHJ): 3.12 µg/mL (≈ 4.45 µM); MIC (E. coli K-12): 6.25 µg/mL (≈ 8.92 µM); MIC (E. coli K-12 R-5): 6.25 µg/mL (≈ 8.92 µM); MIC (Kleb. pneumoniae PCI 602): 1.56 µg/mL (≈ 2.23 µM); MIC (Sal. enteritidis 1891; ENTERITIDIS): 1.56 µg/mL (≈ 2.23 µM)
